Test results from patent publication US11684660B2, “Human PD1 peptide vaccines and uses thereof” (OHIO STATE INNOVATION FOUNDATION, priority 2017, dated 2023).
No end group written: not given here.

Experiments:
[1] = target: T1, extracellular domain of human PD-L1 (hPD-L1) (Homo sapiens, UniProt Q9NZQ7); test: BIACORE SPR binding to immobilized rhPD-L1; conditions: 1 μM peptide; for SPR response of peptide binding to immobilized rhPD-L1: 1 min at 10 μl/min
T1 construct: Recombinant hPD-L1 ectodomain was immobilized onto the gold surface of a CM5 sensor chip
Experimental: To test the activity of all the selected peptides, surface plasmon resonance (SPR) spectroscopy (BIACORE™ T200, at […]) was used to measure their binding affinities to the extracellular domain of human PD-L1 (hPD-L1). Recombinant hPD-L1 ectodomain was immobilized onto the gold surface of a CM5 sensor chip by direct amine coupling.
(§1) 1 μM BSA was used as the negative control. The chip was regenerated by 10 mM Glycine-HCl, pH 2.5(FIG. 3E).
(§2) 1 μM of various PD-1 peptides were injected over the chip for 1 min at 10 μl/min followed by 1 min dissociation and then 1 min regeneration with 10 mM Glycine-HCl, pH 2.5 for each run.

[2] = system: Nivolumab; test: BIACORE SPR binding to immobilized Nivolumab; conditions: 1 μM peptide; for SPR response of peptide binding to immobilized Nivolumab: 1 min at 10 μl/min
Experimental: as §1, §2

[3] = system: murine colon carcinoma CT26 tumor cells; test: CT26 tumor challenge in Balb/c mice immunized with PD-1 constructs; assay type: in vivo; conditions: for inhibition of tumor growth: Day 14, FIG. 15; for median terminal tumor weight: end of study; for median terminal tumor weight / median tumor size LWH, Day 19 / median tumor size LWW, Day 19 / median tumor size LWH, Day 14 / median tumor size LWW, Day 14: 5 mice/group; for difference in tumor size distribution versus controls: exact Wilcoxon rank-sum test, two-sided, unadjusted; for median tumor size LWH, Day 14: ½*length*width*height; for median tumor size LWW, Day 14: ½*length*width*width
Experimental: Immunocompetent Balb/c mice of 6-8 weeks of age were purchased from Charles River Laboratories, Wilmington, Mass. and housed in The Ohio State University's University Laboratory Animal Resources (ULAR) facilitates. Isoflurane was used to anaesthetize the animals before cells injection and termination. Pre-immune sera samples were taken from the mice then they were immunized with 100 μg of peptide emulsified in Montanide ISA 720 (Seppic, Paris, France) and nor-MDP adjuvant (N-acetyl-glucosamine-3 yl-acetyl L-alanyl-D-isoglutamine). Mice received booster immunizations 3 and 6 weeks after the first. Several test sera samples were taken from the mice (FIG. 8).
10 days after the second boost, mice were inoculated with […] murine colon carcinoma CT26 tumor cells subcutaneous on the right flank. Tumor growth was monitored three times a week and sera samples were taken weekly and upon sacrifice of the animal. Control mice on day 0 were engrated with 1×10^5 CT26 tumor cells subcutaneous and received. The animals received 150 μg injections of anti-mouse antibodies directed against PD-1. Mice were monitored and scored for the formation of palpable tumors twice weekly and sacrificed if tumors became necrotic or exceeded the predetermined size of 2,000 mm3. Tumor diameters were measured twice a week. Tumor size was calculated according to the formula: V=[(length ×width2)/2]. Tumor volumes were measured in cubic millimeters with calipers and calculated with the following formula: A×B2×0.5, where A is the largest diameter, and B is the smallest diameter. All experiments were performed in accordance with the U.S. Public Health Service Policy on Humane Care and Use of Laboratory Animals and approved by the Ohio State University Institutional Animals Care and Use Committee and detailed in the accepted protocol
To assess performance of 4 different vaccine treatments on tumor growth, tumor size was measured periodically in mice, and the results were compared to those of positive and negative controls. There were 5 mice in each treatment group, each receiving the assigned MVF-peptide and then being inoculated with 1e5 CT26 (colon) tumor cells 10 days after the final boost of the treatment. Day 14 was considered the primary time point of interest, as the investigators believed waiting until day 19 allowed the tumors too much time to grow, resulting in similar sizes at that point of the experiment. Tumor size was measured in three ways: LWW (½*length*width*width) at all time points, LWH (½*length*width*height) at all time points, and terminal tumor weight at the end of the study. The mice treated with MVF-PD-a(45), group C, were sacrificed before day 19 due to the death of one mouse, so the comparisons can only be made between tumor size at day 14. Tumor size is in units of mm3 for LWW and LWH and grams for terminal tumor weight.
Due to small sample sizes in each group and inability to assume normality, the exact Wilcoxon rank-sum test was used to check for systematic differences between the distributions of tumor size at times 14 days and 19 days (FIGS. 12A-D and Tables 7-10). P-values given are for test comparing that column's control to the respective treatment, and are two-sided to account for the possibility of tumor size being systematically larger or smaller between treatment and control. As this is preliminary data, the p-values are not adjusted for multiple comparisons. Overall, there were few instances of significant differences between the distributions of a control and a treatment.
Immunocompetent Balb/c mice (5 mice/gp) of 6-8 weeks of age were immunized with 100 μg of peptide emulsified in Montanide ISA 720 (Seppic, Paris, France) and nor-MDP adjuvant (N-acetyl-glucosamine-3 yl-acetyl L-alanyl-D-isoglutamine). […]

[4] = system: CD4+CD25+FoxP3+ Tregs; test: Immune-profiling of T cells in spleen and tumor by flow cytometry; assay type: in vivo, Balb/c mice
Experimental: CD4 and CD8 cells were determined by flow cytometry (gated on CD45+CD3+ cells). Foxp3+CD25+CD4 T regulatory cells were determined by intracellular staining. All CD4 and CD8 T cells were gated on CD45+CD3+ cells. Tregs were gated on CD45+CD3+CD4+ cells. Group A=control peptide, Group B=32-50; Group C=45-64; Group D=73-90; Group E=92-110; Group F=α-mouse PD-1 (positive control).
The tumor and tumor draining lymph nodes were collected for subsequent FACS analysis to study the immune response in mice. Cells suspensions were prepared from tissues either by mechanistic dissociation or by enzymatic digestion. The stained cells were analyzed with a LSR II flow cytometer (BD Biosciences) equipped with 3 excitation lasers at wavelengths 405, 488 and 633 nm. CD8+ T cells and CD4+CD25+ T cells from tumor leucocytes were purified either on a MACS column or FACSAria.
Flow cytometric analysis was performed to evaluate the expression of surface markers (CD45, CD3, CD4, CD8 and CD25) and transcription factor FoxP3 in splenocytes and tumor infiltrating T cells. Briefly, spleens were removed from mice and pressed through cell strainers, followed by a short incubation with red blood cells lysis buffer to lyse the red blood cells. Cells were then collected, washed, and resuspended in staining buffer (1% BSA in PBS). Similarly, tumors were removed from mice and pressed through cell strainers, followed by one wash with 37% percoll. The tumor cells were then washed with PBS and resuspended in staining buffer. The splenocytes and tumor cells were incubated with mAbs to the cell-surface markers for 30 min at 4° C. After washing twice with staining buffer, cells were fixed and permeabilized using Cytofix/Cytoperm solution for 60 min at 4° C. Cells were stained for FoxP3 for 30 min at 4° C. 80,000-100,000 live cell events were acquired on a FACSCanto (BD) and analyzed using FlowJo software (Tree Star, Inc.). To differentiate infiltrating cells from tumor cells, the tumor cells were first gated on CD45+ cells. Then the CD3+CD4+ and CD3+CD8+ cells were analyzed. Tregs were represented by CD4+CD25+FoxP3+ cells. […] Group E had the lowest Treg.

[5] = system: human IgG; test: BIACORE SPR binding to immobilized human IgG; conditions: 1 μM injected 3 min at 10 μl/min
Experimental: 126. […] 1 μM BSA was used as the negative control. The chip was regenerated by 10 mM Glycine-HCl, pH 2.5(FIG. 3E).

T1 sequence (Q9NZQ7 19-238 limits assumed): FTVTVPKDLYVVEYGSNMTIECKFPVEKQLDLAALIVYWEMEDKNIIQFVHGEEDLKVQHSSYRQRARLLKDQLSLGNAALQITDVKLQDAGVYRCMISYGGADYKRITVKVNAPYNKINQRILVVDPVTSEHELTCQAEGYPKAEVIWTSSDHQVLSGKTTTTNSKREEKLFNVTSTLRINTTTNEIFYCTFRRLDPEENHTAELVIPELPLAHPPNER

| Substance | binding to immobilized rhPD-L1 (in words) [1] | binding to immobilized Nivolumab (in words) [2] | difference in tumor size distribution versus controls [3] | median tumor size LWH, Day 14 [3] [mm3] | median tumor size LWW, Day 14 [3] [mm3] | also measured |
| --- | --- | --- | --- | --- | --- | --- |
| CH3CONH-DFHMSVVRARRNDSGTYL-CONH2 (Ac-DFHMSVVRARRNDSGTYL-NH2) [AC-PD-1 (73-90)] | bind | bind |  |  |  |  |
| CH3CONH-GAISLAPKAQIKESLRAEL-CONH2 (Ac-GAISLAPKAQIKESLRAEL-NH2) [AC-PD-1 (92-110)] | bind | bind |  |  |  |  |
| CH3CONH-KLAAFPEDRSQPGQDCRFR-CONH2 (Ac-KLAAFPEDRSQPGQDCRFR-NH2) [AC-PD-1 (45-64)] | bind | bind |  |  |  |  |
| H2N-DFHMSVVRARRNDSGTYL-CONH2 (H-DFHMSVVRARRNDSGTYL-NH2) [PD-1 (73-90)] | much stronger binding | much stronger binding |  |  |  |  |
| H2N-KLAAFPEDRSQPGQDCRFR-CONH2 (H-KLAAFPEDRSQPGQDCRFR-NH2) [PD-1 (45-64)] | second stronger binder | second stronger binder |  |  |  |  |
| KLLSLIKGVIVHRLEGVE-GPSL-DFHMSVVRARRNDSGTYL-CONH2 (KLLSLIKGVIVHRLEGVEGPSLDFHMSVVRARRNDSGTYL-NH2) [MVF-PD-1 (73-90)] | bind | bind | no significant differences | 346.5 | 405 | SPR response of peptide binding to immobilized rhPD-L1 [1]: around 110 RU; SPR response of peptide binding to immobilized Nivolumab [2]: 1000 RU; inhibition of tumor growth [3]: not inhibitory; median terminal tumor weight [3]: 0.93 grams; median tumor size LWH, Day 19 [3]: 768 mm3; median tumor size LWW, Day 19 [3]: 968 mm3 |
| KLLSLIKGVIVHRLEGVE-GPSL-KLAAFPEDRSQPGQDCRFR-CONH2 (KLLSLIKGVIVHRLEGVEGPSLKLAAFPEDRSQPGQDCRFR-NH2) [MVF-PD-1 (45-64)] | bind |  | no significant differences | 448 | 550 | SPR response of peptide binding to immobilized rhPD-L1 [1]: around 110 RU; inhibition of tumor growth [3]: not inhibitory; Treg population in spleen compared to Group A (negative control) ([4]; splenocytes, FIG. 10A): increased Treg population; Tregs in tumor ([4]; tumor infiltrating cells, FIG. 10B): increased Treg development in tumor microenvironment |
| KLLSLIKGVIVHRLEGVE-GPSL-VLNWYRMSPSNQTDKLAAF-CONH2 (KLLSLIKGVIVHRLEGVEGPSLVLNWYRMSPSNQTDKLAAF-NH2) [MVF-PD-1 (32-50)] |  |  | no significant differences | 420 | 486 | SPR response of peptide binding to immobilized Nivolumab [2]: 20 RU; median terminal tumor weight [3]: 0.92 grams; median tumor size LWH, Day 19 [3]: 900 mm3; median tumor size LWW, Day 19 [3]: 1080 mm3 |
| rhPD-1: recombinant human PD-1 (hPD-1) ectodomain used to validate the sensor chip |  |  |  |  |  | SPR response on immobilized human IgG (chip validation) [5]: didn't show any binding signal |
